Measured values as given in US10759831B2, “Peptide compound, production method therefor, and use thereof” (iNtRON Biotechnology, Inc., priority 2014, dated 2020).
Where two headings read alike, the source gives them in different places.

Experiments:
[1] = test system: colon cancer cell line HCT116; test: SRB cell viability assay, colon cancer cell line HCT116; assay type: cell-based; conditions: Homo sapiens, HCT-116
Method: (§1) Regarding a lung cancer cell line A549 (Korean Cell line Bank), a colon cancer cell line HCT116 (ATCC), a stomach cancer cell line SNU638 (Korean Cell Line Bank), a liver cancer cell line SK-HEP-1 (Korean Cell line Bank), and a breast cancer cell line MDA-MB-231 (Korean Cell line Bank), a sulforhodamine B (SRB) assay which is a method of measuring cell viability was used for measuring apoptosis effects of Asperphenin.
(§2) In detail, 190 μl of a cell suspension at a concentration of 3.5×10^4 cells/ml was inoculated in each well of a 96-well microplate. 0.8 μM, 4 μM, 20 μM, or 100 μM of Asperphenin was added to the cell culture medium, and cultured at a temperature of 37° C. for 72 hours under the condition of 5% CO2. After incubation, 50 μl of 50% (v/v) trichloroacetic acid solution (Sigma Aldrich) was added to each well, and then, incubated at a temperature of 4° C. for 30 minutes, to thereby fix the cells thereto. The fixed cells were washed with water five times, and then, dried in the air.
(§3) Next, 80 μl of a 0.4% (w/v) SRB aqueous solution (Sigma Aldrich) containing 1% (v/v) acetic acid (DUKSAN) was added to each well, incubated at room temperature for 1 hour to stain cells therein, and the stained cells washed with water and dried. The cells were dissolved by adding 200 μl of 10 mM Tris (pH 10.0) (Sigma Aldrich) to each well, and then, the number of living cells was calculated by measuring the absorbance thereof at 515 nm. The concentration of the compound inhibiting cell growth to 50% based on the number of the living cells, i.e., 50% inhibition concentration (IC50) was calculated, and the results are shown in Table 3. Here, as a positive control, etoposide (Sigma Aldrich) was used.
From the colon cancer cell lines HCT116 (ATCC), HCT15 (Korean Cell Line Bank), LS174T (Korean Cell Line Bank), RKO(ATCC), and SW480(ATCC), cell growth inhibition concentrations (IC50, μM) were calculated as described in Example 2-1, and the results are shown in Table 4. Here, as a positive control, paclitaxel (Sigma Aldrich) was used.

[2] = test system: liver cancer cell line SK-HEP-1; test: SRB cell viability assay, liver cancer cell line SK-HEP-1; assay type: cell-based; conditions: Homo sapiens, SK-HEP1; SK-HEP-1, 72 hours; read-out: Cell growth inhibition concentration (IC50)
Method: as §1, §2, §3

[3] = test system: breast cancer cell line MDA-MB-231; test: SRB cell viability assay, breast cancer cell line MDA-MB-231; assay type: cell-based; conditions: Homo sapiens; MDA-MB-231, 72 hours; read-out: Cell growth inhibition concentration (IC50)
Method: as §1, §2, §3

[4] = test system: colon cancer cell line HCT15; test: SRB cell viability assay, colon cancer cell line HCT15; assay type: cell-based; conditions: Homo sapiens, HCT-15, read-out: Growth inhibition value of cancer cell (IC50)
Method: as §2
(§4) Next, 80 μl of a 0.4% (w/v) SRB aqueous solution (Sigma Aldrich) containing 1% (v/v) acetic acid (DUKSAN) was added to each well, incubated at room temperature for 1 hour to stain cells therein, and the stained cells washed with water and dried. The cells were dissolved by adding 200 μl of 10 mM Tris (pH 10.0) (Sigma Aldrich) to each well, and then, the number of living cells was calculated by measuring the absorbance thereof at 515 nm. […]
(§5) From the colon cancer cell lines HCT116 (ATCC), HCT15 (Korean Cell Line Bank), LS174T (Korean Cell Line Bank), RKO(ATCC), and SW480(ATCC), cell growth inhibition concentrations (IC50, μM) were calculated as described in Example 2-1, and the results are shown in Table 4. […]

[5] = test system: colon cancer cell line RKO; test: SRB cell viability assay, colon cancer cell line RKO; assay type: cell-based; conditions: Homo sapiens, read-out: Growth inhibition value of cancer cell (IC50)
Method: as §2, §4, §5

[6] = test system: colon cancer cell line SW480; test: SRB cell viability assay, colon cancer cell line SW480; assay type: cell-based; conditions: Homo sapiens, read-out: Growth inhibition value of cancer cell (IC50)
Method: as §2, §4, §5

RKO cells [7] = test: Annexin V-FITC/PI apoptosis measurement by flow cytometry; assay type: cell-based, human; conditions: 48 hours, 0.625-10 μM, FIG. 4
Method: The process of apoptosis in the cell line RKO by Asperphenin B was confirmed using a Annexin V-FITC apoptosis measuring kit (manufactured by D Pharmingen).
As described in Example 2-3, Asperphenin B at the concentration of 0.625 μM, 1.25 μM, 2.5 μM, 5 μM, or 10 μM was added to the RKO cells, cultured for 48 hours to obtain cells. 300 μl of 1× binding buffer was added to the obtained cells, and well mixed together. Then, 5 μl of Annexin V and 5 μl of PI were added to 100 μl of the cell mixture, and allowed to react at room temperature for 15 minutes in the shaded stated. 400 μl of 1× binding buffer was added to the reactants, a FACSCalibur flow cytometer (BD FACSCalibur, BD Biosciences) was used to analyze the cell apoptosis. Based on the flow cytometry results, ratios of cells that were not stained (i.e., living cells), cells stained with annexin V (i.e., cells apoptosized at the early state), cells stained with both PI and annexin V (i.e., cells apoptosized at the late state or cells necrotized), or cells stained with PI only (i.e., cells necrotized) were calculated. As a negative control, cells to which Asperphenin B was not added were used.

[8] = test system: apoptosis-related proteins in RKO cells; test: Immunoblotting of apoptosis-related proteins; assay type: cell-based, human
Method: As described in Example 2-3, cells were obtained in a way that Asperphenin B at the concentration of 0.625 μM, 1.25 μM, 2.5 μM, 5 μM, or 10 μM was added to the RKO cells, and then, cultured for 48 hours. However, cells were obtained in a way that Asperphenin B at the concentration of 5 μM was added to the RKO cells, and then, cultured for 0 to 48 hours. Then, proteins were obtained from the obtained cells.
Also, regarding the expression of apoptosis-related proteins, anti-ATM antibody (Cell Signaling Technology), anti-p-Chk (Thr68) antibody (Cell Signaling Technology), anti-Chk antibody (Cell Signaling Technology), anti-p-H2AX antibody (Cell Signaling Technology), anti-p53 antibody (Santa Cruz), anti-Bax antibody (Santa Cruz), anti-BID antibody (Cell Signaling Technology), anti-Caspase-8 antibody (Cell Signaling Technology), anti-Caspase-3 antibody (Cell Signaling Technology), anti-Caspase-9 antibody (Cell Signaling Technology), anti-cleaved PARP antibody (BD Biosciences), and anti-β-actin antibody (Santa Cruz) were used, to thereby perform immunoblotting.

RKO cells [9] = test: Tumor xenograft mouse model, RKO human colon cancer cell line; assay type: in vivo; conditions: nude mouse; for Tumor growth inhibition ratio: 21 days
Method: The anticancer effect of […] was verified in a tumor xenograft mouse model to which human colon cancer cell line was transplanted. In detail, RKO cells were subcutaneously injected at a concentration of 3.5×10^6 cells/150 μl into the right side of a nude mouse (Central Lab. Aminol Inc., hairless and small mouse that was tymus free and had dried beard at birth). […] The tumor size was measured by using a digital caliper for 21 days at intervals of 3 to 4 days. Here, as a control, a nude mouse to which […] was not administered was used (n=5).

[10] = Physicochemical characterization

## CCCCCCCCC[C@@H](O)CC(=O)N[C@@H](CC(N)=O)C(=O)N[C@@H](CCC(N)=O)C(=O)N[C@H](CC(=O)c1cc(C)cc(O)c1C(=O)c1c(O)cccc1O)CC(C)C [Asperphenin B]
[1]; HCT116, 72 hours, Table 3, read-out: Cell growth inhibition concentration (IC50)
  IC50: 2.6 µM
[1]; HCT116, Table 4, read-out: Growth inhibition value of cancer cell (IC50)
  IC50: 4.05 µM
[2]
  IC50: 3 µM
[3]
  IC50: 6 µM
[4]
  IC50: 7.2 µM
[5]
  IC50: 1.17 µM
[6]
  IC50: 31.4 µM
RKO cells [7]
  Ratio of necrotic cells compared to control: increased
  Ratios of cells of early apoptosis and cells of late apoptosis or necrosis compared to control: increased
[8]; 5 μM, 0 to 48 hours, FIG. 6B
  Expression of p53 and Bax: increased in a time-dependent manner
[8]; 5 μM, 48 hours, FIG. 6B
  Expression of p-Chk2 (Thr68), p-H2AX (Ser139), cleaved caspase-8, cleaved caspase-9, cleaved caspase-3, and PARP: increased
[8]; 48 hours, 0.625-10 μM, FIG. 6A
  Expression of ATM protein: increased in a concentration-dependent manner
  Expression of p53 protein: increased in a concentration-dependent manner
[8]; 48 hours, FIG. 6A
  Chk2 and H2AX, sub-regulatory factors of ATM: phosphorylated to be activated
  Cleavage of Bid, caspase-8, caspase-9, caspase-3 and PARP: induced
  Expression of Bax: increased expression
RKO cells [9]; 4 mg/kg intraperitoneally 3 times a week
  Tumor growth inhibition ratio: 38.9%
RKO cells [9]; 4 mg/kg or 8 mg/kg
  Inhibition of tumor growth: observed in a compound concentration-dependent manner
RKO cells [9]; 8 mg/kg intraperitoneally 3 times a week
  Tumor growth inhibition ratio: 68.7%
[10]
  Solubility in organic solvent: well dissolved in a moderate organic solvent, such as methanol and acetone
  Stability: stable at room temperature
